#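 Grown in 96-well plates, cells were treated for 48 hours with each compound at five concentrations. Insufficient inhibition: endpoint recorded as highest concentration tested. TGI: concentration producing complete growth inhibition.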
# How the values were obtained:
# Assay in all cases: NCI tumour cell line growth inhibition, 48 h
# IGROV1 ovarian = test system: IGROV1 ovarian
# A498 renal = test system: A498 renal
# 786-0 renal = test system: 786-0 renal
# K-562 leukemia = test system: K-562 leukemia
# HOP-62 NSCLC = test system: HOP-62 NSCLC
# COLO 205 colon = test system: COLO 205 colon
# NCI-H23 lung = test system: NCI-H23 lung
# KM12 colon = test system: KM12 colon
# U251 CNS = test system: U251 CNS
# HT29 colon = test system: HT29 colon
# RPMI-8226 leukemia = test system: RPMI-8226 leukemia
# TK-10 renal = test system: TK-10 renal
# OVCAR-3 ovarian = test system: OVCAR-3 ovarian
# HCC-2998 colon = test system: HCC-2998 colon
# UACC-62 melanoma = test system: UACC-62 melanoma
# HL-60(TB) leukemia = test system: HL-60(TB) leukemia
# DU-145 prostate = test system: DU-145 prostate
# T-47D breast = test system: T-47D breast
# MDA-MB-435 = test system: MDA-MB-435
# ACHN renal = test system: ACHN renal
# MOLT-4 leukemia = test system: MOLT-4 leukemia
# NCI-H226 lung = test system: NCI-H226 lung
# SNB-19 CNS = test system: SNB-19 CNS
# SF-268 CNS = test system: SF-268 CNS
# OVCAR-5 ovarian = test system: OVCAR-5 ovarian
# PC-3 prostate = test system: PC-3 prostate
# EKVX NSCLC = test system: EKVX NSCLC
# SK-MEL-5 melanoma = test system: SK-MEL-5 melanoma
# SW-620 colon = test system: SW-620 colon
# NCI-H522 lung = test system: NCI-H522 lung
# HS 578T breast = test system: HS 578T breast
# NCI-H460 lung = test system: NCI-H460 lung
# RXF 393 renal = test system: RXF 393 renal
# CAKI-1 renal = test system: CAKI-1 renal
# A549 NSCLC = test system: A549 NSCLC
# MDA-MB-231 breast = test system: MDA-MB-231 breast
# HCT-15 colon = test system: HCT-15 colon
# SNB-75 CNS = test system: SNB-75 CNS
# SF-295 CNS = test system: SF-295 CNS
# UO-31 renal = test system: UO-31 renal
# SK-MEL-2 melanoma = test system: SK-MEL-2 melanoma
# MCF7 breast = test system: MCF7 breast
# M14 melanoma = test system: M14 melanoma
# BT-549 breast = test system: BT-549 breast
# SR leukemia = test system: SR leukemia
# MDA-N = test system: MDA-N
# MALME-3M melanoma = test system: MALME-3M melanoma
# LOX IMVI melanoma = test system: LOX IMVI melanoma
# SF-539 CNS = test system: SF-539 CNS
# OVCAR-8 ovarian = test system: OVCAR-8 ovarian
# OVCAR-4 ovarian = test system: OVCAR-4 ovarian
# UACC-257 melanoma = test system: UACC-257 melanoma
# SN12C renal = test system: SN12C renal
# SK-MEL-28 melanoma = test system: SK-MEL-28 melanoma
# SK-OV-3 ovarian = test system: SK-OV-3 ovarian
# CCRF-CEM leukemia = test system: CCRF-CEM leukemia
# HOP-92 NSCLC = test system: HOP-92 NSCLC
# HCT-116 colon = test system: HCT-116 colon
# NCI/ADR-RES ovarian = test system: NCI/ADR-RES ovarian
smiles,measurement,setting,value
NC(=O)c1ccc(NCC2=CC(=O)C=CC2=O)cc1,TGI,IGROV1 ovarian,44.7 µM
same,TGI,A498 renal,> 100 µM
same,TGI,786-0 renal,38.5 µM
same,TGI,K-562 leukemia,49.1 µM
same,TGI,HOP-62 NSCLC,> 100 µM
same,TGI,COLO 205 colon,36.2 µM
same,TGI,NCI-H23 lung,51.7 µM
same,TGI,KM12 colon,> 100 µM
same,TGI,U251 CNS,45.1 µM
same,TGI,HT29 colon,47.7 µM
same,TGI,RPMI-8226 leukemia,54.6 µM
same,TGI,TK-10 renal,32.7 µM
same,TGI,OVCAR-3 ovarian,31 µM
same,TGI,HCC-2998 colon,> 100 µM
same,TGI,UACC-62 melanoma,35.6 µM
same,TGI,HL-60(TB) leukemia,30.3 µM
same,TGI,DU-145 prostate,> 100 µM
same,TGI,T-47D breast,68.9 µM
same,TGI,MDA-MB-435,32.1 µM
same,TGI,ACHN renal,31.6 µM
same,TGI,MOLT-4 leukemia,67.9 µM
same,TGI,NCI-H226 lung,> 100 µM
same,TGI,SNB-19 CNS,> 100 µM
same,TGI,SF-268 CNS,50.9 µM
same,TGI,OVCAR-5 ovarian,52.9 µM
same,TGI,PC-3 prostate,32.7 µM
same,TGI,EKVX NSCLC,34.3 µM
same,TGI,SK-MEL-5 melanoma,30.2 µM
same,TGI,SW-620 colon,44 µM
same,TGI,NCI-H522 lung,47.5 µM
same,TGI,HS 578T breast,75.2 µM
same,TGI,NCI-H460 lung,> 100 µM
same,TGI,RXF 393 renal,41 µM
same,TGI,CAKI-1 renal,34.2 µM
same,TGI,A549 NSCLC,> 100 µM
same,TGI,MDA-MB-231 breast,37.5 µM
same,TGI,HCT-15 colon,38.3 µM
same,TGI,SNB-75 CNS,36.2 µM
same,TGI,SF-295 CNS,> 100 µM
same,TGI,UO-31 renal,31.8 µM
same,TGI,SK-MEL-2 melanoma,39.8 µM
same,TGI,MCF7 breast,59.1 µM
same,TGI,M14 melanoma,31.3 µM
same,TGI,BT-549 breast,36.2 µM
same,TGI,SR leukemia,56.4 µM
same,TGI,MDA-N,31.8 µM
same,TGI,MALME-3M melanoma,36.6 µM
same,TGI,LOX IMVI melanoma,32.5 µM
same,TGI,SF-539 CNS,32.9 µM
same,TGI,OVCAR-8 ovarian,50.7 µM
same,TGI,OVCAR-4 ovarian,42.4 µM
same,TGI,UACC-257 melanoma,43.1 µM
same,TGI,SN12C renal,41.3 µM
same,TGI,SK-MEL-28 melanoma,36.9 µM
same,TGI,SK-OV-3 ovarian,> 100 µM
same,TGI,CCRF-CEM leukemia,50.8 µM
same,TGI,HOP-92 NSCLC,40.7 µM
same,TGI,HCT-116 colon,36.1 µM
same,TGI,NCI/ADR-RES ovarian,71.4 µM
Cc1cn(C2OC(CO)C(O)C2O)c(=O)[nH]c1=O (stereo not drawn),TGI,IGROV1 ovarian,> 1000 µM
same,TGI,A498 renal,> 1000 µM
same,TGI,786-0 renal,> 1000 µM
same,TGI,K-562 leukemia,> 1000 µM
same,TGI,HOP-62 NSCLC,> 1000 µM
same,TGI,COLO 205 colon,> 1000 µM
same,TGI,NCI-H23 lung,> 1000 µM
same,TGI,KM12 colon,> 1000 µM
same,TGI,U251 CNS,> 1000 µM
same,TGI,HT29 colon,> 1000 µM
same,TGI,RPMI-8226 leukemia,> 1000 µM
same,TGI,TK-10 renal,> 1000 µM
same,TGI,OVCAR-3 ovarian,> 1000 µM
same,TGI,HCC-2998 colon,> 1000 µM
same,TGI,UACC-62 melanoma,> 1000 µM
same,TGI,HL-60(TB) leukemia,> 1000 µM
same,TGI,DU-145 prostate,> 1000 µM
same,TGI,T-47D breast,> 1000 µM
same,TGI,MDA-MB-435,> 1000 µM
same,TGI,ACHN renal,> 1000 µM
same,TGI,MOLT-4 leukemia,> 1000 µM
same,TGI,NCI-H226 lung,> 1000 µM
same,TGI,SNB-19 CNS,> 1000 µM
same,TGI,SF-268 CNS,> 1000 µM
same,TGI,OVCAR-5 ovarian,> 1000 µM
same,TGI,PC-3 prostate,> 1000 µM
same,TGI,EKVX NSCLC,> 1000 µM
same,TGI,SK-MEL-5 melanoma,> 1000 µM
same,TGI,SW-620 colon,> 1000 µM
same,TGI,NCI-H522 lung,> 1000 µM
same,TGI,HS 578T breast,> 1000 µM
same,TGI,NCI-H460 lung,> 1000 µM
same,TGI,RXF 393 renal,> 1000 µM
same,TGI,CAKI-1 renal,> 1000 µM
same,TGI,A549 NSCLC,> 1000 µM
same,TGI,MDA-MB-231 breast,> 1000 µM
same,TGI,HCT-15 colon,> 1000 µM
same,TGI,SNB-75 CNS,> 1000 µM
same,TGI,SF-295 CNS,> 1000 µM
same,TGI,UO-31 renal,> 1000 µM
same,TGI,SK-MEL-2 melanoma,> 1000 µM
same,TGI,MCF7 breast,> 1000 µM
same,TGI,M14 melanoma,> 1000 µM
same,TGI,BT-549 breast,> 1000 µM
same,TGI,SR leukemia,> 1000 µM
same,TGI,MDA-N,> 1000 µM
same,TGI,MALME-3M melanoma,> 1000 µM
same,TGI,LOX IMVI melanoma,> 1000 µM
same,TGI,SF-539 CNS,> 1000 µM
same,TGI,OVCAR-8 ovarian,> 1000 µM
same,TGI,OVCAR-4 ovarian,> 1000 µM
same,TGI,UACC-257 melanoma,> 1000 µM
same,TGI,SN12C renal,> 1000 µM
same,TGI,SK-MEL-28 melanoma,> 1000 µM
same,TGI,SK-OV-3 ovarian,> 1000 µM
same,TGI,CCRF-CEM leukemia,> 1000 µM
same,TGI,HOP-92 NSCLC,> 1000 µM
same,TGI,HCT-116 colon,> 1000 µM
same,TGI,NCI/ADR-RES ovarian,> 1000 µM

# From PubChem BioAssay (NCI)
